“Also recorded” adds a separate entry of the source.
How the values were obtained:
GMC101 worms [1] = experiment: Transcript analysis of the MSR and other stress pathways in GMC101 worms; format: in vivo, C. elegans; conditions: for UPR^er and HSR gene transcripts: AZD 0.3 μM; for MSR transcripts (UPR^mt, mitophagy and respiration genes): AZD 300 nM
Experimental: C. elegans: A total of ˜3000 worms per condition, divided in 3 biological replicates, was recovered in M9 buffer from NGM plates and lysed in the TriPure RNA reagent. Each experiment was repeated twice. Total RNA was transcribed to cDNA using QuantiTect Reverse Transcription Kit (Qiagen). Expression of selected genes was analyzed using the LightCycler480 system (Roche) and LightCycler® 480 SYBR Green I Master reagent (Roche). For C. elegans, 2 housekeeping genes were used to normalize the expression data, namely actin (act-1) and peroxisomal membrane protein 3 (pmp-3).
atfs-1p::atfs-1 expression vector was created by amplifying 1488 bp sequence upstream from the transcription start site of atfs-1 coding region by using worm genomic DNA for the promoter region. The PCR product was digested with PciI and AgeI and ligated into the pPD30.38 expression vector containing gfp coding sequence cloned between inserted AgeI and NotI restriction sites. The atfs-1 coding sequence (CDS) was instead amplified using C. elegans cDNA, and the PCR product was inserted into pPD30.38 downstream of the promoter region, between AgeI and NheI restriction sites. The correctness of the atfs-1p::atfs-1 construct was assessed by sequencing with the indicated pPD30.38 and atfs-1 seq. primers. Two independent GMC101 lines (AUW9 and AUW10), and one CL2122 strain (AUW11) carrying atfs-1p::atfs-1 transgene as extrachromosomal array were analyzed in the study. Injection marker myo-2p::gfp was cloned by amplifying 1179 bp sequence upstream from the transcription start site of myo-2 coding region by using C. elegans genomic DNA. The PCR product was digested with PciI and AgeI and ligated into the pPD30.38 expression vector containing atfs-1::gfp to replace atfs-1 promoter sequence between PciI and AgeI restriction sites. All transgenic strains were created by using microinjection. For the generation of the GMC101 lines AUW12 and AUW13, GMC101 males were generated after exposure of L4 worms to 30° C. for 3 h, and let mate with L4 from clk-1 or nuo-6 mutant strains. The derived progeny was selected for homozygosis of the GMC101 intestinal GFP marker for few generations, and the homozygosis of the clk-1 or nuo-6 mutant alleles verified by amplifying and sequencing a 500 bp region of the worms genomic DNA encompassing the desired mutation. Bacterial feeding RNAi experiments were carried out as described. Clones used were atfs-1 (ZC376.7), ubl-5 (F46F11.4), mrps-5 (E02A10.1), dct-1 (C14F5.1), daf-16 (R13H8.1), sir-2.1 (R11A8.4), xbp-1 (R74.3) and hsf-1 (Y53C10A.12). Clones were purchased from GeneService and verified by sequencing. The novel atfs-1 RNAi construct (atfs-1 #2) used in this study was generated by amplifying 1400 bp of the atfs-1 genomic DNA sequence, starting from the last exon of atfs-1. Gateway cloning (Thermo Scientfic) was used to insert the PCR product into the gateway vector pL4440gtwy (Addgene #11344), and verified by sequencing. atfs-1 knockdown was verified by qPCR for all the atfs-1 RNAi constructs used herein. For phenotypic studies (see below), worms at the L4 larval stage were allowed to reach adulthood and lay eggs on the treatment plates. The deriving F1 worms were shifted from 20° C. to 25° C. at the L4 stage to induce amyloid accumulation and paralysis, and phenotypes assessed over time as indicated. For double RNAi experiments, we used a combination of atfs-1 with mrps-5 RNAi constructs as indicated in the text, with 80% amount of atfs-1 and 20% mrps-5 RNAi. For mRNA analysis, synchronized L1 worms were exposed to the treatment plates, and shifted from 20° C. to 25° C. when reaching the L4 stage. After 24 hours incubation at 25° C., corresponding to day 1 of adulthood, they were harvested in M9 for analysis.
Doxycycline was obtained from Sigma-Aldrich and dissolved in water. For experiments, a final concentration of 15 μg/mL was used. Olaparib (AZD2281) was dissolved in DMSO to experimental concentrations of 300 nM. […]

GMC101 worms [2] = experiment: Western-blot of amyloid aggregation in GMC101 worms; format: in vivo, C. elegans; conditions: for Aβ aggregation (proteotoxic stress): GMC101, day 1 of adulthood, dox 15 μg/mL, NR 1 mM, AZD 300 nM
Experimental: C. elegans: Worms were lysed by sonication with RIPA buffer containing protease and phosphatase inhibitors (Roche), and analyzed by SDS-PAGE and western blot. The concentration of extracted protein was determined by using the Bio-Rad Protein Assay. Proteins were detected using the following antibodies: anti-β-actin (Sigma), anti-tubulin (Santa Cruz), atp-5, ucr-1 (Oxphos cocktail, Abcam), anti-β-Amyloid, 1-16 (6E10) (BioLegend). In addition to the housekeeping proteins, loading was monitored by Ponceau Red to ensure a homogeneous loading. Pixel intensity was quantified by using ImageJ software. Each immunoblot experiment was repeated at least twice using 3 biological replicates each containing approximately 1000 worms.
During the assays, animals were exposed to Myriocin (dissolved in DMSO) from the egg stage on plates seeded with live HT115 E. coli bacteria. Control plates seeded with the same bacteria were prepared with the corresponding concentrations of DMSO. The day of the experiment (day 1 of adulthood, 3 days after hatching), the GMC101 population was shifted to 25° C. in order to induce the amyloid deposition in the body wall muscle. ˜1000 worms were used for western blotting assays.
Worms were lysed by sonication with RIPA buffer containing protease and phosphatase inhibitors (Roche), and analyzed by western blot. The concentration of extracted protein was determined by the Bio-Rad Protein Assay. Proteins were detected using the following antibodies: anti-β-actin (Sigma) and anti-β-Amyloid (BioLegend). In addition to the housekeeping proteins, loading was monitored by Ponceau Red to ensure a homogeneous loading. The immunoblot experiment employed 3 biological replicates, each containing approximately 1000 worms.
Worms were lysed by sonication with RIPA buffer containing protease and phosphatase inhibitors (Roche), and analyzed by western blot. The concentration of extracted proteins was determined by the Bio-Rad Protein Assay. Proteins were detected using the following antibodies: anti-β-actin (Sigma) and anti-β-Amyloid (BioLegend). In addition to the housekeeping proteins, loading was monitored by Ponceau Red to ensure a homogeneous loading. The immunoblot experiment employed 3 biologicals replicates, each containing approximately 1000 worms.
The GMC101 worms were recovered 24 h after being shifted at 25° C. The population was treated with UA at two different concentrations, ie 20 uM and 50 uM.

[3] = GMC101, day 1 of adulthood, dox 15 μg/mL, NR 1 mM

O=C(c1cc(Cc2n[nH]c(=O)c3ccccc23)ccc1F)N1CCN(C(=O)C2CC2)CC1 [AZD, Olaparib, reference compound]
UPR^er and HSR gene transcripts (GMC101 worms [1]; [3]): only a minimal impact | MSR transcripts (UPR^mt, mitophagy and respiration genes) (GMC101 worms [1]; [3]): induced the MSR | Aβ aggregation (proteotoxic stress) (GMC101 worms [2]): reduced proteotoxic stress

NC(=O)c1ccc[n+]([C@@H]2O[C@H](CO)[C@@H](O)[C@H]2O)c1 [NR, Nicotinamide Riboside triflate]
daf-16 and daf-16 target gene transcripts (GMC101 worms [1]; [3]): did not affect | UPR^er and HSR gene transcripts (GMC101 worms [1]; [3]): only a minimal impact | MSR transcripts (UPR^mt, mitophagy and respiration genes) (GMC101 worms [1]; [3]): induced the MSR | Aβ aggregation (proteotoxic stress) (GMC101 worms [2]): reduced proteotoxic stress

CCCCCCC(=O)CCCCCC/C=C/C[C@@H](O)[C@H](O)[C@@](N)(CO)C(=O)O [Myriocin, (E,2S,3R,4R)-2-amino-3,4-dihydroxy-2-(hydroxymethyl)-14-oxoicos-6-enoic acid]
oxidative stress and mitochondrial stress response genes (sod-2, sod-4, atfs-1, skn-1) (GMC101 worms [1]; GMC101, myriocin 5 uM and 10 uM): induction | UPR^mt and mitophagy genes (hsp-6, hsp-60, dct-1, pdr-1) (GMC101 worms [1]; GMC101, myriocin treatment): upregulation | accumulation of amyloid-β aggregates (GMC101 worms [2]; GMC101, Day 1 of adulthood, Myriocin 5 uM and 10 uM): dose-dependently decreased; also recorded: dose-dependent reduction
